# Measured values published in patent publication EP4480960A1, “A R[…] ALPHA-1 ANTITRYPSIN GLYCOPROTEIN” (AATEC Medical GmbH, priority 2023, dated 2024).
# Where a name gives a salt, the structure may show the parent alone.
# Assays:
# [1] = biological target: recombinant human TMPRSS2 enzyme (CusaBio #YP023924HU) (human) (UniProt O15393); test: cell-based or functional assay
# [2] = biological target: T1, human neutrophil elastase (Homo sapiens, UniProt P08246); test: Neutrophil Elastase activity assay (fluorogenic MEOSUC-Ala-Ala-Pro-Val-AMC substrate); type: biochemical; design: key to Neutrophil Elastase IC50 / Neutrophil Elastase IC90: - = inactive
# T1 construct: purchased Merck Millipore 324681
# T1 sequence (P08246 30-247 limits assumed): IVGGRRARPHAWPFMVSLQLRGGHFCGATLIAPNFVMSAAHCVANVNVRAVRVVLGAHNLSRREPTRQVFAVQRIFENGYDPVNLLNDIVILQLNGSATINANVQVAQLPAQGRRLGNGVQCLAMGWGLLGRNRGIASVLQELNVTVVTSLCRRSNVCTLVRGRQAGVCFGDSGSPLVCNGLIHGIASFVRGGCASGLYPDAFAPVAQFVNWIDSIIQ
# [3] = 15 min preincubation at 37 °C, read after 5 minutes
# recombinant human TMPRSS2 enzyme (CusaBio #YP023924HU) (human), sequence (O15393 106-492 limits assumed): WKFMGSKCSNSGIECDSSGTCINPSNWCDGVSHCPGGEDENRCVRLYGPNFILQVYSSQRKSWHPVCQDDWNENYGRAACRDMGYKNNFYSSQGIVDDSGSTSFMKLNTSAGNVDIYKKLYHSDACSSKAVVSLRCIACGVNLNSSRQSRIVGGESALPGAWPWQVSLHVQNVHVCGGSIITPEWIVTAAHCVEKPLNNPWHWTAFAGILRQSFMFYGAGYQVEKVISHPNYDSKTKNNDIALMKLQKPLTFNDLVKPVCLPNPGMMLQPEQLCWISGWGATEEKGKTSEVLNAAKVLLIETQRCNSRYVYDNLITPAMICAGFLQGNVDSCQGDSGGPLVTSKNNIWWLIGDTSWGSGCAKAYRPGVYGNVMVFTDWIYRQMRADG
TMPRSS2 IC50 (fluorogenic substrate enzyme activity assay) [1],Compound,"Neutrophil Elastase IC50 [2, 3]","Neutrophil Elastase IC90 [2, 3]",inhibition of neutrophil elastase activity ([2]; result in words)
0.0518 µM,"NIBSC Standard Alpha-1-Antitrypsin, plasma derived (1st International standard) (#05/162 NIBSC) (from UniProt P01009 25-418)",,,
0.079 µM,"Prolastin (Grifols), human plasma-derived A1AT formulation (from UniProt P01009 25-418)",,,
,CN(C)C(=O)COC(=O)Cc1ccc(OC(=O)c2ccc(NC(=N)N)cc2)cc1 [Camostat mesylate],-,-,did not inhibit
